# Results published in publication PMC6149819, “Domain IV of Annexin A5 Is Critical for Binding Calcium and Guarantees Its Maximum Binding to the Phosphatidylserine Membrane” (Molecules : A Journal of Synthetic Chemistry and Natural …, 2017).
# Legend:
# wtA5 (wild-type anxA5) = molecular target: T1, wtA5 (wild-type anxA5) (Homo sapiens, UniProt P08758); assay: isothermal titration calorimetry, one-site model; type: binding
# T1 construct: non-fusion protein released by SspDnaB intein self-cleavage, His6-CBD-intein removed; E. coli BL21(DE3); forward primer encodes AQVLRG directly after the intein (initiator Met absent)
# T1 sequence (P08758 2-320): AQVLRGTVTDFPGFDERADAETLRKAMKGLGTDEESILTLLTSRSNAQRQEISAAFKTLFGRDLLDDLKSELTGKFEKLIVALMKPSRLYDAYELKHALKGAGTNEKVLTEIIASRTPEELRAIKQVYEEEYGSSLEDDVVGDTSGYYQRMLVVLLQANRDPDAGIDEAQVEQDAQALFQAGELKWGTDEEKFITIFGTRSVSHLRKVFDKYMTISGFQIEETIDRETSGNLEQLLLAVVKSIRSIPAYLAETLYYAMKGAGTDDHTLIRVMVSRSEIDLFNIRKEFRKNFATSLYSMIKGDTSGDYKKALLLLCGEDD
# From the text: isothermal titration calorimetry, one-site model on wtA5 (wild-type anxA5)
# [1] = molecular target: T2, ctA5 (C-terminal truncated anxA5, lacking domain IV) (Homo sapiens, UniProt P08758, DEL255-320); assay: isothermal titration calorimetry, one-site model; type: binding
# T2 construct: domain IV (last 66 residues) deleted; reverse primer ends at AYLAET; non-fusion protein released by SspDnaB intein self-cleavage, His6-CBD-intein removed; E. coli BL21(DE3); initiator Met absent
# T2 sequence (P08758 2-254): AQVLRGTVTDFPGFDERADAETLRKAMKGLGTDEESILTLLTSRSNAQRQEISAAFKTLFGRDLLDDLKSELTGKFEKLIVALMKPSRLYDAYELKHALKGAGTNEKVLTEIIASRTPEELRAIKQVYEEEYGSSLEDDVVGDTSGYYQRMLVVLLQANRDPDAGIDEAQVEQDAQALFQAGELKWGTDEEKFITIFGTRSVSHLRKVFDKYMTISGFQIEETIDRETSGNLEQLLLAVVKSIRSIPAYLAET
# From the text: isothermal titration calorimetry, one-site model on ctA5 (C-terminal truncated anxA5, lacking domain IV)
compound,measurement,setting,value
CCCCCCCC/C=C\CCCCCCCC(=O)O[C@H](COC(=O)CCCCCCCCCCCCCCC)COP(=O)(O)OC[C@H](N)C(=O)O [POPS],Kd,wtA5 (wild-type anxA5),55.9 ± 6.8 µM
same,Kd,[1],158 ± 15.4 µM
